Data on four molecules can be found in US20170145002A1, “DEUTERATED ISOXAZOLE DERIVATIVES AND THEIR USE AS METABOTROPIC GLUTAMATE RECEPTOR POTENTIATORS” (AstraZeneca AB, priority 2015, published 2017).

Data set [1] can be described thus: Metabolic stability and intrinsic clearance in dog hepatocytes. In kind it is in vitro ADME. The settings on record: cryopreserved dog hepatocytes 1.0×10^6 viable cells/mL, 37° C., up to 120 minutes; read-out: Dog Hepatocytes Median t1/2. As for the experimental part:
Stock solutions (10 mM) of the test compounds and control compounds were prepared in appropriate solvent (DMSO). The incubation medium (L-15 Medium) was placed in a 37° C. water bath, and warming was allowed for at least 15 minutes prior to use. 80 μL of acetonitrile was added to each well of the 96-well deep well plate (quenching plate). In a new 96-well plate, the 10 mM test compound solutions and the control compound solution were diluted to 100 μM by combining 198 μL of acetonitrile and 2 μL of 10 mM stock. A vial of cryopreserved dog hepatocytes was removed from storage, while ensuring that vials remain at cryogenic temperatures until thawing process ensued. As quickly as possible, the cells were thawed by placing the vial in a 37° C. water bath and gently shaking the vials. Vials remained in water bath until all ice crystals had dissolved and were no longer visible. After thawing was complete, vial was sprayed with 70% ethanol, and transferred to a biosafety cabinet. The vial was opened and the contents poured into the 50 mL conical tube containing thawing medium. The 50 mL conical tube was placed into a centrifuge and spun at 100 g for 10 minutes. Upon completion of spin, the thawing medium was aspirated and hepatocytes resuspended in enough incubation medium to yield ˜1.5×10^6 cells/mL. Using Cellometer® Vision, cells were counted and the viable cell density was determined. Cells with poor viability (<80% viability) were not acceptable for use. Cells were diluted with incubation medium to a working cell density of 1.0×10^6 viable cells/mL. 247.5 μL of hepatocytes were transferred into each well of a 96-well cell culture plate. The plate was placed on Eppendorf Thermomixer Comfort plate shaker to allow the hepatocytes to warm for 10 minutes. 2.5 μL of 100 μM test compound solution or control compound solution were added into an incubation well containing cells, and mixed to achieve a homogenous suspension at 0.5 minutes, which when achieved, defined the 0.5 minute time point. At the 0.5 minute time point, 20 μL of incubated mixture was transferred to wells in a “Quenching” plate followed by vortexing. The plate was incubated at 37 ° C. at 900 rpm on an Eppendorf Thermomixer Comfort plate shaker. At 5, 15, 30, 45, 60, 80, 100 minutes and 120 minutes, the incubation system was mixed and samples of 20 μL of incubated mixture were serially transferred at each time point to wells in a separate “Quenching” plate followed by vortexing. The quenching plates were centrifuged for 20 minutes at 4,000 rpm. […]
All calculations were carried out using Microsoft Excel. Peak areas were determined from extracted ion chromatograms. […]
The in vitro intrinsic clearance (in vitro Clint, in μL/min/10^6 cells) is determined from the slope value using the following equation: […]

Data set [2] is described as follows: Metabolic stability and intrinsic clearance in rat hepatocytes. The following applies: cryopreserved rat hepatocytes 1.0×10^6 viable cells/mL, 37° C., up to 120 minutes; read-out: Rat Hepatocytes Median t1/2. Format: in vitro ADME. As for the experimental part: Stock solutions (10 mM) of Compounds A, B, C, D and of control compounds were prepared in the appropriate solvent (DMSO). The L-15 Medium was placed in a 37° C. water bath, and allowed to warm for at least 15 minutes prior to use. Acetonitrile (80 μL) was added to each well of the 96-well plate (quenching plate).
In a new 96-well plate, the solutions of the above compounds and of the control compounds were diluted to 100 μM by combining 198 μL of acetonitrile and 2 μL of each stock solutions. A vial of cryopreserved rat hepatocytes was removed from storage, while ensuring that the vial remain at cryogenic temperatures until thawing process ensued. As quickly as possible, the cells were thawed by placing the vial in a 37° C. water bath and gently shaking the vial. The vial remained in the water bath until all ice crystals had dissolved and were no longer visible. After thawing was completed, the vial was sprayed with 70% ethanol, and transferred into a biosafety cabinet. The vial was opened and the content poured into a 50 mL conical tube containing L-15 Medium. The vial was washed twice. The 50 mL conical tube was placed in a centrifuge and spun at 50 g for 3 minutes (room temperature). The L-15 medium was aspirated. A small volume of buffer (˜200 μL) was added and the pellet was re-suspended. The tube was filled with buffer to a volume of 50 mL and centrifugation was repeated. Upon completion of spin, the L-15 Medium was aspirated and the hepatocytes re-suspended in enough incubation medium to yield ˜1.5×10^6 cells/mL. Using Cellometer® Vision, the cells were counted and the viable cell density was determined. Cells with poor viability (<80% viability) were not acceptable for use. Cells were diluted with incubation medium to a working cell density of 1.0×10^6 viable cells/mL. Hepatocytes (247.5 μL) were transferred into each well of a 96-well cell culture plate. The plate was placed on an Eppendorf Thermomixer Comfort plate shaker to allow the hepatocytes to warm for 10 minutes.
Solutions (2.5 μL of 100 μM) of Compounds A, B, C, D and of the control compounds were added into an incubation well containing cells and mixed to achieve a homogenous suspension at 0.5 minutes, which when achieved, defined the 0.5 minute time point. At the 0.5 minute time point, the incubated mixture (20 μL) was transferred to wells in a “Quenching plate,” followed by vortexing. […]
All calculations were carried out using Microsoft Excel. Peak areas were determined from extracted ion chromatograms. The in vitro half-life (t1/2) of the parent compound was determined by regression analysis of the Ln percent parent disappearance vs. time curve.
The in vitro intrinsic clearance (in vitro Clint, in μL/min/10^6 cells) was determined from the slope value using the following equation: […]

Regarding `[2H]C1([2H])OC([2H])([2H])C([2H])([2H])N(C(=O)c2cc(-c3cc(Cl)c4c(c3)CN([C@@H](C)C3CC3)C4=O)on2)C1([2H])[2H]` [Compound A, (S)-7-chloro-2-(1-cyclopropylethyl)-5-(3-(morpholine-4-carbonyl-2,2,3,3,5,5,6,6-d8)isoxazol-5-yl)isoindolin-1-one], the half-life at 1 μM in data set [1] was 40.1 min; in data set [2] it was 100 min.

On to `[2H]C1([2H])CN(C(=O)c2cc(-c3cc(Cl)c4c(c3)CN([C@@H](C)C3CC3)C4=O)on2)CC([2H])([2H])O1` [Compound B, (S)-7-chloro-2-(1-cyclopropylethyl)-5-(3-(morpholine-4-carbonyl-2,2,6,6-d4)isoxazol-5-yl)isoindolin-1-one], for which the half-life at 1 μM was determined as 40.1 min in data set [1] and 36.8 min in data set [2].

With `[2H]C1([2H])COCC([2H])([2H])N1C(=O)c1cc(-c2cc(Cl)c3c(c2)CN([C@@H](C)C2CC2)C3=O)on1` [Compound C, (S)-7-chloro-2-(1-cyclopropylethyl)-5-(3-(morpholine-4-carbonyl-3,3,5,5-d4)isoxazol-5-yl)isoindolin-1-one], the half-life at 1 μM in data set [1] is 33.3 min; in data set [2] it was 29.1 min.

As to `C[C@@H](C1CC1)N1Cc2cc(-c3cc(C(=O)N4CCOCC4)no3)cc(Cl)c2C1=O` [Compound D, (S)-7-chloro-2-(1-cyclopropylethyl)-5-(3-(morpholine-4-carbonyl)isoxazol-5-yl)isoindolin-1-one, reference compound], the half-life at 1 μM in data set [1] is 29.9 min; in data set [2], 37.3 min.
